#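 In this assay, cells in 96-well plates receive the compound at five concentrations for 48 hours. Endpoints are linearly interpolated between the surrounding concentrations. Here, GI50 denotes the concentration required for 50% inhibition of growth. TGI marks complete inhibition of growth.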
# Tests used:
# Test in all cases: NCI anticancer screen, dose series, 48 h
# MCF7 breast = test system: MCF7 breast
# MDA-MB-468 breast = test system: MDA-MB-468 breast
# NCI-H522 lung = test system: NCI-H522 lung
# SK-MEL-28 melanoma = test system: SK-MEL-28 melanoma
# MDA-MB-231 breast = test system: MDA-MB-231 breast
# U251 CNS = test system: U251 CNS
# BT-549 breast = test system: BT-549 breast
# HOP-62 NSCLC = test system: HOP-62 NSCLC
# LOX IMVI melanoma = test system: LOX IMVI melanoma
# NCI-H460 lung = test system: NCI-H460 lung
# T-47D breast = test system: T-47D breast
# CCRF-CEM leukemia = test system: CCRF-CEM leukemia
# K-562 leukemia = test system: K-562 leukemia
# SK-OV-3 ovarian = test system: SK-OV-3 ovarian
# HL-60(TB) leukemia = test system: HL-60(TB) leukemia
# OVCAR-4 ovarian = test system: OVCAR-4 ovarian
# SK-MEL-5 melanoma = test system: SK-MEL-5 melanoma
# SR leukemia = test system: SR leukemia
# HCC-2998 colon = test system: HCC-2998 colon
# A549 NSCLC = test system: A549 NSCLC
# HCT-116 colon = test system: HCT-116 colon
# PC-3 prostate = test system: PC-3 prostate
# MOLT-4 leukemia = test system: MOLT-4 leukemia
# SN12C renal = test system: SN12C renal
# NCI-H226 lung = test system: NCI-H226 lung
# 786-0 renal = test system: 786-0 renal
# OVCAR-3 ovarian = test system: OVCAR-3 ovarian
# MDA-MB-435 = test system: MDA-MB-435
# KM12 colon = test system: KM12 colon
# COLO 205 colon = test system: COLO 205 colon
smiles,measurement,setting,value
CC12OOC(C)(OO1)C2CCC(=O)NCCCNc1ccnc2cc(Cl)ccc12 (centres undefined),GI50,MCF7 breast,8.11 µM
same,TGI,MCF7 breast,> 20 µM
same,GI50,MDA-MB-468 breast,3.6 µM
same,TGI,MDA-MB-468 breast,8.97 µM
same,GI50,NCI-H522 lung,2660 nM
same,TGI,NCI-H522 lung,5.59 µM
same,GI50,SK-MEL-28 melanoma,> 20 µM
same,TGI,SK-MEL-28 melanoma,> 20 µM
same,GI50,MDA-MB-231 breast,8.26 µM
same,TGI,MDA-MB-231 breast,> 20 µM
same,GI50,U251 CNS,> 20 µM
same,TGI,U251 CNS,> 20 µM
same,GI50,BT-549 breast,> 20 µM
same,TGI,BT-549 breast,> 20 µM
same,GI50,HOP-62 NSCLC,> 20 µM
same,TGI,HOP-62 NSCLC,> 20 µM
same,GI50,LOX IMVI melanoma,3.06 µM
same,TGI,LOX IMVI melanoma,5.85 µM
same,GI50,NCI-H460 lung,12.7 µM
same,TGI,NCI-H460 lung,> 20 µM
same,GI50,T-47D breast,4.35 µM
same,TGI,T-47D breast,13.4 µM
same,GI50,CCRF-CEM leukemia,4.51 µM
same,TGI,CCRF-CEM leukemia,14.1 µM
same,GI50,K-562 leukemia,4.28 µM
same,TGI,K-562 leukemia,10.1 µM
same,GI50,SK-OV-3 ovarian,> 20 µM
same,TGI,SK-OV-3 ovarian,> 20 µM
same,GI50,HL-60(TB) leukemia,3.6 µM
same,TGI,HL-60(TB) leukemia,8.63 µM
same,GI50,OVCAR-4 ovarian,3.19 µM
same,TGI,OVCAR-4 ovarian,6.64 µM
same,GI50,SK-MEL-5 melanoma,> 20 µM
same,TGI,SK-MEL-5 melanoma,> 20 µM
same,GI50,SR leukemia,3.88 µM
same,TGI,SR leukemia,8.71 µM
same,GI50,HCC-2998 colon,> 20 µM
same,TGI,HCC-2998 colon,> 20 µM
same,GI50,A549 NSCLC,4.22 µM
same,TGI,A549 NSCLC,9.86 µM
same,GI50,HCT-116 colon,5.56 µM
same,TGI,HCT-116 colon,17.6 µM
same,GI50,PC-3 prostate,> 20 µM
same,TGI,PC-3 prostate,> 20 µM
same,GI50,MOLT-4 leukemia,8.6 µM
same,TGI,MOLT-4 leukemia,> 20 µM
same,GI50,SN12C renal,> 20 µM
same,TGI,SN12C renal,> 20 µM
same,GI50,NCI-H226 lung,> 20 µM
same,TGI,NCI-H226 lung,> 20 µM
same,GI50,786-0 renal,3.5 µM
same,TGI,786-0 renal,7.16 µM
same,GI50,OVCAR-3 ovarian,2970 nM
same,TGI,OVCAR-3 ovarian,5.83 µM
same,GI50,MDA-MB-435,4.84 µM
same,TGI,MDA-MB-435,16.2 µM
same,GI50,KM12 colon,> 20 µM
same,TGI,KM12 colon,> 20 µM
same,GI50,COLO 205 colon,3.69 µM

# Reference: PubChem BioAssay (NCI)
